Earlier results on two substances are cited in patent US20200289412A1, “BIOENHANCED SPIRULINA LOZENGE FORMULATION” (priority 2019, published 2020).

One data set concerns tumor cell. The settings on record: time-dependent; not directly killing cancer cells.
For data set [1], the system named is human immunodeficiency virus-1 virus (HIV-1).

Take Spirulina polysaccharide [PSP]: in the data set on tumor cell, the tumor cell growth entry was “inhibiting tumor cell growth”.
For the substance calcium spirulan [Ca-Sp], the in vitro replication entry (in the data set with Herpes simplex type I; in the data set with human cytomegalovirus; in the data set on measles virus; in the data set on mumps virus; in the data set on influenza A virus; in data set [1]) was “inhibits the in vitro replication” each time.
